18 compounds from patent US20240270701A1, “BETA ADRENERGIC AGONIST AND METHODS OF USING THE SAME” (Curasen Therapeutics, Inc., priority 2021, published 2024) can be followed below.

One assay concerns the target T1, B1-AR (Homo sapiens, UniProt P08588).
T1 construct: expressed in transfected cells; host or cells: CHO-K1
Put plainly: cAMP Gs dynamic HTRF assay, cells expressing beta-adrenergic receptor (CHO-K1), B1-AR. Particulars: for EC50: cAMP HTRF, read-out: pEC50 [B1-AR] (converted); for Emax: relative to full agonist isoproterenol, read-out: Emax (% iso) (%) [B1-AR]. In kind it is cell-based. How it is done: (§1) cAMP homogeneous time-resolved fluorescence (HTRF): experimental methods. Compound efficacy is determined using the cAMP Gs dynamic HTRF assay (Cisbio, catalog #62AM4PEC) largely following the manufacturer's instructions, also detailed below.
(§2) Standard serial dilution curves are 10-point, 5-fold dilutions starting from a highest concentration of 10 μM. Controls present on every assay plate are 0.1% DMSO (vehicle control), 1 μM isoproterenol (full beta-adrenergic agonist control) and […] xamoterol (partial beta-adrenergic agonist control). […] Assay plates are centrifuged at 500×g for 10 seconds. Compounds and IBMX are prepared at 2× final dose to compensate for addition of cells.
(§3) Cell preparation: 1× stimulation buffer, washing PBS (Dulbecco's phosphate-buffered saline, − Mg − Ca; Caisson Labs, catalog #PBL01), assay PBS (Dulbecco's phosphate-buffered saline, + Mg, + Ca; Caisson Labs, catalog #PBL02) and Versene (0.02% EDTA disodium salt solution in PBS without calcium or magnesium; Caisson Labs, catalog #EDL01) are pre-warmed to 37° C. Cells expressing beta-adrenergic receptor were washed in washing PBS to remove growth medium and then released from the surface by incubating with Versene for 5-10 minutes at 37° C. Cells are harvested using assay PBS, counted manually by hemocytometer or by an automated cell counter, pelleted by centrifugation (200×g, 5 minutes) and resuspended in 37° C. 1× stimulation buffer to a final density of 1.5×10^6 cells/mL. 5 μL of the suspended cell solution (7500 cell total) are added to all wells of the 384 well assay plate, the assay plate was covered with an Axygen® plate seal (Corning PCR-SP) and incubated in a humidified 37° C. environment supplemented with 5% CO2 for 30 minutes.
(§4) HTRF reagent addition, reading and data analysis: After 30 minutes of cell stimulation with test compound, the assay plates are centrifuged at 500×g for 10 seconds, and incubation was stopped with the addition of 5 μL cAMP-D2 acceptor, diluted 1:21 in detection and lysis buffer 2 (Cisbio 62CL2FDF) was added to all cells. Subsequently, 5 μL Anti-cAMP-Eu Donor, diluted 1:21 in detection and lysis buffer 2, was added to cells. Plates were sealed and reactions gently ‘vortexed’ at 900 rpm on a Heidolph Titramax 1000 for at least 30 minutes at room temperature. Plates are centrifuged again at 500×g for 10 seconds, and HTRF was measured using a Tecan Spark plate reader at 50 flashes per well. […] Potency estimates (EC50 and pEC50) are derived from the four-parameter nonlinear regression of the concentration-effect curve and an estimate of relative efficacy is determined by comparing the magnitude of the test compound HTRF signal window (min−max dose) with the signal window of the full agonist control, isoproterenol.
A general note: TR-FRET usually uses a lanthanide donor and a delayed reading to cut background.

Another assay addresses T2, B2-AR (Homo sapiens, UniProt P07550).
T2 construct: expressed in transfected cells; host or cells: CHO-K1
Put plainly: cAMP Gs dynamic HTRF assay, cells expressing beta-adrenergic receptor (CHO-K1), B2-AR. It is filed as cell-based. Particulars: for EC50: cAMP HTRF, read-out: pEC50 [B2-AR] (converted); for Emax: relative to full agonist isoproterenol, read-out: Emax (% iso) (%) [B2-AR]. How it is done:
as §1, §2, §3, §4

SMILES strings stand for the structures. Like-named read-outs stand apart in the source and are kept apart here.

T1 sequence (P08588 whole entry, species assumed): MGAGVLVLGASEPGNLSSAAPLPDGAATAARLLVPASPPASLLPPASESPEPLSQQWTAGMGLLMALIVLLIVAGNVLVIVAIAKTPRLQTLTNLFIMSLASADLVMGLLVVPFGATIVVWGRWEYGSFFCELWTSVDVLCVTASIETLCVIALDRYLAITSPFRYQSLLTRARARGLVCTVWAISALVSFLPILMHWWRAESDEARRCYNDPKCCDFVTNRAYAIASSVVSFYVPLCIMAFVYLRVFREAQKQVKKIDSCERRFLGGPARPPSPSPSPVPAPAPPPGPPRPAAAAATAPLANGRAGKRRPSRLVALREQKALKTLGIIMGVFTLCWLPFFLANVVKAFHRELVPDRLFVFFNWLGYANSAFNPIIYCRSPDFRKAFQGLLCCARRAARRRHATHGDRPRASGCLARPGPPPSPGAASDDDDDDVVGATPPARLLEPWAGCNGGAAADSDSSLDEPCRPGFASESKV
T2 sequence (P07550 whole entry, species assumed): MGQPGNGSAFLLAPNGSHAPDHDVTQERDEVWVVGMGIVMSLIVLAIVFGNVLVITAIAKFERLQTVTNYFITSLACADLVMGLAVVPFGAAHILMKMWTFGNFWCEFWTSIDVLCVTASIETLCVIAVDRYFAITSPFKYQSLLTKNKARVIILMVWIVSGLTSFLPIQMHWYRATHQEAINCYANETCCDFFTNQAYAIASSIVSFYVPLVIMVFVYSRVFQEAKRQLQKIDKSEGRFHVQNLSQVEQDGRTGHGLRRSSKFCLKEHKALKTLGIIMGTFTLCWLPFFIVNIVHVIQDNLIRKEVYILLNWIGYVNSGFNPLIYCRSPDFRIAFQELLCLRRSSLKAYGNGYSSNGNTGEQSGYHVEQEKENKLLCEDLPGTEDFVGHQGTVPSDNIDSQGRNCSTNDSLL

As a reminder, the Emax is the size of the effect at its maximum, as opposed to the concentration needed. On to `CC(C)[C@@H](C)NC[C@H](O)c1cccc2[nH]ncc12` [I-33], for which, at B1-AR, the EC50 is under 10 nM and the Emax was 70 to 90%. Moreover, on B2-AR (CHO-K1 cells), the EC50 is under 10 nM and the Emax was over 90%.

As for `CC[C@H](C)NC[C@H](O)c1cc(F)cc2[nH]ncc12` [I-34], at B1-AR, the EC50 is under 10 nM and the Emax is over 90%. On B2-AR (CHO-K1 cells), the EC50 was under 10 nM and the Emax fell in the range of 70 to 90%.

Regarding `CC[C@H](C)NC[C@H](O)c1cccc2[nH]nc(F)c12` [I-35], at B1-AR, the EC50 is under 10 nM and the Emax is 70 to 90%. Besides, at B2-AR (CHO-K1 cells), the EC50 was under 10 nM and the Emax lay within 70 to 90%.

As to `CC(C)[C@H](C)NC[C@H](O)c1ccc(F)c2[nH]ncc12` [I-36], the EC50 on B1-AR and on B2-AR (CHO-K1 cells) was under 10 nM in each case. For the same compound, the Emax on B1-AR is 70 to 90%; at B2-AR (CHO-K1, CHO-K1 cells), over 90%.

`CCC(CC)NC[C@H](O)c1ccc(F)c2[nH]ncc12` [I-37]: the EC50 at B1-AR was 10 to 100 nM; on B2-AR (CHO-K1 cells) it was under 10 nM. Also, the Emax on B1-AR is 70 to 90%; at B2-AR (CHO-K1, CHO-K1 cells), 70 to 90%.

As to `CC(C)[C@@H](C)NC[C@H](O)c1cccc2[nH]nc(F)c12` [I-38], the EC50 on B1-AR and at B2-AR (CHO-K1 cells) was under 10 nM each time. The Emax was 70 to 90% on B1-AR and over 90% on B2-AR (CHO-K1, CHO-K1 cells).

`CC(C)[C@H](C)NC[C@H](O)c1cccc2[nH]ncc12` [I-40]: the results for the EC50 at B1-AR and at B2-AR (CHO-K1 cells) were 10 to 100 nM and under 10 nM, respectively. For the same compound, the Emax on B1-AR was 70 to 90%; on B2-AR (CHO-K1 cells) it was over 90%.

With `CC[C@@H](C)NC[C@H](O)c1cc(F)cc2[nH]ncc12` [I-41], at B1-AR, the EC50 was under 10 nM and the Emax is over 90%. In addition, at B2-AR (CHO-K1 cells), the EC50 was under 10 nM and the Emax is over 90%.

`CCC(CC)NC[C@H](O)c1cccc2[nH]nc(F)c12` [I-42]: the EC50 is 10 to 100 nM on B1-AR and under 10 nM on B2-AR (CHO-K1 cells). Also, the Emax is over 90% on B1-AR and 70 to 90% at B2-AR (CHO-K1, CHO-K1 cells).

With `CCC(CC)NC[C@H](O)c1cccc2[nH]ncc12` [I-43], the EC50 at B1-AR is 10 to 100 nM; on B2-AR (CHO-K1 cells), under 10 nM. Moreover, the maximal response (Emax) at B1-AR was over 90%; on B2-AR (CHO-K1, CHO-K1 cells) it was over 90%.

With `CCC(CC)NC[C@H](O)c1cc(F)cc2[nH]ncc12` [I-44], the EC50 at B1-AR and on B2-AR (CHO-K1 cells) was under 10 nM each time. Further, the Emax is over 90% at B1-AR and 70 to 90% at B2-AR (CHO-K1, CHO-K1 cells).

As to `CCC(C)(C)NC[C@H](O)c1cccc2[nH]nc(Cl)c12` [I-45], the EC50 on B1-AR and on B2-AR (CHO-K1 cells) was under 10 nM throughout. For the same compound, the Emax at B1-AR lay within 70 to 90%; at B2-AR (CHO-K1, CHO-K1 cells) it was 70 to 90%.

For the compound `CCC(C)(C)NC[C@H](O)c1cccc2[nH]cc(F)c12` [I-46], the EC50 at B1-AR and at B2-AR (CHO-K1 cells) was under 10 nM throughout. Moreover, the Emax on B1-AR was over 90%; at B2-AR (CHO-K1, CHO-K1 cells) it was over 90%.

Regarding `CCC(C)(C)NC[C@H](O)c1cccc2[nH]ncc12` [I-47], the EC50 at B1-AR and on B2-AR (CHO-K1 cells) was under 10 nM each time. Further, the Emax was 70 to 90% at B1-AR and over 90% at B2-AR (CHO-K1, CHO-K1 cells).

Turning to `CCC(C)(C)NC[C@H](O)c1cccc2[nH]nc(F)c12` [I-48], the EC50 on B1-AR and at B2-AR (CHO-K1 cells) was under 10 nM each time. The Emax on B1-AR is over 90%; on B2-AR (CHO-K1, CHO-K1 cells), over 90%.

Take `CCC(C)(C)NC[C@H](O)c1ccc(Cl)c2[nH]ncc12` [I-49]: the EC50 at B1-AR and at B2-AR (CHO-K1 cells) was under 10 nM each time. The Emax at B1-AR is 70 to 90%; at B2-AR (CHO-K1, CHO-K1 cells), 70 to 90%.

As for `CCC(C)(C)NC[C@H](O)c1ccc(F)c2[nH]ncc12` [I-50], on B1-AR, the EC50 was under 10 nM and the Emax is 70 to 90%. Also, at B2-AR (CHO-K1 cells), the EC50 is under 10 nM and the Emax fell in the range of 70 to 90%.

Turning to `CCC(C)(C)NC[C@H](O)c1cc(F)cc2[nH]ncc12` [I-51], on B1-AR, the EC50 is under 10 nM and the maximal response (Emax) was 70 to 90%. At B2-AR (CHO-K1 cells), the EC50 was under 10 nM and the Emax is over 90%.
